In patent US8937167B2 (Washington University, priority 2009, dated 2015):
Like-named read-outs stand apart in the source and are kept apart here.

Biological target: FimH (Escherichia coli, UniProt Q1R2J4)
Conditions: for HAI Titer EC>50: Table 21; for EC90: read-out: HA 50% titer EC90, Table 12; for EC90 / EC50: Example 6 numbering
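Further: hemagglutination inhibition of guinea pig erythrocytes agglutinated by type 1 piliated uropathogenic E. coli via FimH mannose binding, quantified through serial dilutions of compound.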

| Compound | HAI Titer EC>90 [µM] | other results |
| --- | --- | --- |
| O=[N+]([O-])c1ccc(-c2ccc(OC3OC(CO)C(O)C(O)C3O)cc2)cc1 (stereo not drawn) [Compound 3ZFH72, 2-(hydroxymethyl)-6-[4-(4-nitrophenyl)phenoxy]tetrahydropyran-3,4,5-triol] | 2.000 |  |
| COC(=O)c1cccc(-c2ccc(OC3OC(CO)C(O)C(O)C3O)cc2C(=O)OC)c1 (stereo not drawn) [Compound 2ZFH244, methyl 2-(3-methoxycarbonyl-phenyl)-5-[3,4,5-trihydroxy-6-(hydroxymethyl)tetrahydropyran-2-yl]oxy-benzoate] | 1.000 |  |
| CNC(=O)c1cccc(-c2ccc(CC3OC(CO)C(O)C(O)C3O)cc2)c1 (stereo not drawn) [Compound 5ZFH49] |  | HAI Titer EC>50 (ZFH/JWJ codes): 1.000 µM |
| N#Cc1ccccc1-c1ccc(OC2OC(CO)C(O)C(O)C2O)cc1 (stereo not drawn) [Compound 3ZFH64, 2-[4-[3,4,5-trihydroxy-6-(hydroxymethyl)tetrahydropyran-2-yl]oxyphenyl]benzonitrile] | 2.000 |  |
| CN(C)C(=O)c1cccc(-c2ccc(OC3OC(CO)C(O)C(O)C3O)cc2)c1 (stereo not drawn) [JJ-I-93, N,N-dimethyl-3-[4-[3,4,5-trihydroxy-6-(hydroxymethyl)tetrahydropyran-2-yl]oxyphenyl]benzamide] | 3.000 |  |
| OC[C@@H]1OC(Oc2ccc(-c3ccc4ncncc4c3)cc2)[C@H](O)[C@@H](O)[C@@H]1O (stereo partly drawn) [Compound 4ZFH247, (2S,3S,4S,5R)-2-(hydroxymethyl)-6-(4-quinazolin-6-ylphenoxy)tetrahydropyran-3,4,5-triol] | 0.375 | HAI Titer EC>50 (ZFH/JWJ codes): 0.375 µM; HAI Titer EC>90 (Table 22, ZFH/JWJ codes): 0.375 µM |
| CNC(=O)c1cc(C(=O)NC)cc(-c2ccc(OC3O[C@@H](CO)[C@@H](O)[C@H](O)[C@H]3O)c(C)c2)c1 (stereo partly drawn) [Compound 4ZFH284, N1,N3-dimethyl-5-[3-methyl-4-[(3R,4S,5S,6S)-3,4,5-trihydroxy-6-(hydroxymethyl)tetrahydropyran-2-yl]oxy-phenyl]benzene-1,3-dicarboxamide] | 0.016 | HAI Titer EC>50 (ZFH/JWJ codes): 0.016 µM; HAI Titer EC>90 (Table 22, ZFH/JWJ codes): 0.016 µM |
| O=[N+]([O-])c1cccc(OC2OC(CO)C(O)C(O)C2O)c1 (stereo not drawn) [Compound 2ZFH100, 2-(hydroxymethyl)-6-(3-nitrophenoxy)tetrahydropyran-3,4,5-triol] | 16.000 |  |
| CNC(=O)c1cccc(-c2ccc(OC3OC(CO)C(O)C(O)C3O)cc2C(=O)OC)c1 (stereo not drawn) [Compound 2ZFH265, methyl 2-[3-(methylcarbamoyl)phenyl]-5-[3,4,5-trihydroxy-6-(hydroxymethyl)tetrahydropyran-2-yl]oxy-benzoate] | 2.000 |  |
| OCc1ccc(-c2ccc(OC3OC(CO)C(O)C(O)C3O)cc2)cc1 (stereo not drawn) [Compound 14i] |  | EC90: 6 µM |
| COC(=O)c1cccc(-c2ccc(C(=O)NCC3O[C@@H](CO)[C@@H](O)[C@H](O)[C@H]3O)cc2)c1 (stereo partly drawn) [Compound 4ZFH131, methyl 3-[4-[[(3R,4R,5S,6S)-3,4,5-trihydroxy-6-(hydroxymethyl)tetrahydropyran-2-yl]methylcarbamoyl]phenyl]benzoate] | 16.000 | HAI Titer EC>50 (ZFH/JWJ codes): 16.000 µM; HAI Titer EC>90 (Table 22, ZFH/JWJ codes): 16.000 µM |
| O=C(NCCCCOC1OC(CO)C(O)C(O)C1O)c1ccc(-c2c3ccc(=O)cc-3oc3cc(O)ccc23)c(C(=O)O)c1 (stereo not drawn) [Compound 1ZFH134] |  | HAI Titer EC>50 (ZFH/JWJ codes): 125.000 µM |
| NC(=O)c1ccccc1-c1ccc(OC2OC(CO)C(O)C(O)C2O)cc1 (stereo not drawn) [Compound 3ZFH66, 2-[4-[3,4,5-trihydroxy-6-(hydroxymethyl)tetrahydropyran-2-yl]oxyphenyl]benzamide] | 6.000 |  |
| OCC1OC(Oc2ccccc2Cl)C(O)C(O)C1O (stereo not drawn) [Compound 2ZFH180, 2-(2-chlorophenoxy)-6-(hydroxymethyl)tetrahydropyran-3,4,5-triol] | 4.000 |  |
| COC(=O)COC1OC(CO)C(O)C(O)C1O (stereo not drawn) [Compound 1ZFH74] |  | HAI Titer EC>50 (ZFH/JWJ codes): 500.000 µM |
| OCc1ccccc1-c1ccc(OC2OC(CO)C(O)C(O)C2O)cc1 (stereo not drawn) [Compound 14g] |  | fold less potent in HA titer (ortho 14g relative to meta 14h): over 5 fold; EC50 (read-out: 50% HA titer): 16 µM; EC90: 16 µM |
| CC(=O)Nc1ccc(-c2ccc(OC3OC(CO)C(O)C(O)C3O)cc2)cc1C(=O)O (stereo not drawn) [Compound 4ZFH306] |  | HAI Titer EC>50 (ZFH/JWJ codes): 0.750 µM |
| COC(=O)Cc1cc(OC2OC(CO)C(O)C(O)C2O)ccc1O (stereo not drawn) [Compound 1ZFH187, methyl 2-[2-hydroxy-5-[3,4,5-trihydroxy-6-(hydroxymethyl)tetrahydropyran-2-yl]oxy-phenyl]acetate] | 15.000 |  |
| COC1OC(CO)C(O)C(O)C1O (stereo not drawn) [Methylaman, reference compound] |  | EC50 (read-out: HA 50% titer): > 1000 µM |
| OCC1OC(Oc2ccc(-c3ccccc3O)cc2)C(O)C(O)C1O (stereo not drawn) [Compound 3ZFH111, 2-(hydroxymethyl)-6-[4-(2-hydroxyphenyl)phenoxy]tetrahydropyran-3,4,5-triol] | 8.000 |  |
| N#Cc1cccc(-c2ccc(OC3OC(CO)C(O)C(O)C3O)cc2)c1 (stereo not drawn) [Compound 3ZFH68, 3-[4-[3,4,5-trihydroxy-6-(hydroxymethyl)tetrahydropyran-2-yl]oxyphenyl]benzonitrile] | 1.000 |  |

| Compound | HAI Titer EC>90 [µM] | other results |
| --- | --- | --- |
| CNC(=O)c1cccc(-c2ccc(OC3OC(CO)C(O)C(O)C3O)cc2C(=O)NC)c1 (stereo not drawn) [Compound 2ZFH266, N-methyl-2-[3-(methylcarbamoyl)phenyl]-5-[3,4,5-trihydroxy-6-(hydroxymethyl)tetrahydropyran-2-yl]oxy-benzamide] | 12.000 |  |
| Cc1ccc(OC2OC(CO)C(O)C(O)C2O)cc1 (stereo not drawn) [Compound 2ZFH175, 2-(hydroxymethyl)-6-(4-methylphenoxy)tetrahydropyran-3,4,5-triol] | 8.000 |  |
| NC(=O)Nc1csc(-c2ccc(OC3OC(CO)C(O)C(O)C3O)cc2)c1 (stereo not drawn) [Compound 4ZFH303] |  | HAI Titer EC>50 (ZFH/JWJ codes): 1.000 µM |
| COC(=O)c1csc(-c2ccc(O[C@H]3O[C@H](CO)[C@@H](O)[C@H](O)[C@@H]3O)cc2)c1 [Compound 13d] |  | HAI Titer EC>90 (Table 19, Examples 30-36 numbering): 2.0 µM |
| COC(=O)c1cc(-c2ccc(OC3OC(CO)C(O)C(O)C3O)cc2)ccn1 [Compound 3ZFH220, methyl 4-[4-(a-D-mannopyranosyloxy)phenyl]pyridine-2-carboxylate] | 0.500 |  |
| CNC(=O)c1cccc(-c2ccc([C@@H](O)C3OC(CO)C(O)C(O)C3O)cc2)c1 (stereo partly drawn) [Compound 5ZFH38] |  | HAI Titer EC>50 (ZFH/JWJ codes): 0.250 µM |
| O=C(Nc1cccnc1)c1cccc(-c2ccc(OC3OC(CO)C(O)C(O)C3O)cc2)c1 (stereo not drawn) [Compound 3ZFH265, N-(3-pyridyl)-3-[4-[3,4,5-trihydroxy-6-(hydroxymethyl)tetrahydropyran-2-yl]oxyphenyl]benzamide] | 0.375 |  |
| OCC1OC(n2cc(-c3ccccc3)nn2)C(O)C(O)C1O (stereo not drawn) [Compound 4ZFH105, 2-(hydroxymethyl)-6-(4-phenyltriazol-1-yl)tetrahydropyran-3,4,5-triol] | 32.000 |  |
| OCC1OC(Oc2cccc(Cl)c2)C(O)C(O)C1O (stereo not drawn) [Compound 2ZFH181, 2-(3-chlorophenoxy)-6-(hydroxymethyl)tetrahydropyran-3,4,5-triol] | 8.000 |  |
| COC(=O)c1cccc(-c2ccc(SC3OC(CO)C(O)C(O)C3O)cc2)c1 (stereo not drawn) [Compound 4ZFH55, methyl 3-[4-[3,4,5-trihydroxy-6-(hydroxymethyl)tetrahydropyran-2-yl]sulfanylphenyl]benzoate] | 4.000 |  |
| COC(=O)c1cccc(-c2ccc(OC3OC(CO)C(O)C(O)C3O)cc2)c1 (stereo not drawn) [Compound 2ZFH238] |  | HAI Titer EC>50: >2500 µM |
| CN(C)C(=NCCNC(=O)c1cccc(-c2ccc(OC3OC(CO)C(O)C(O)C3O)cc2)c1)N(C)C (stereo not drawn) [Compound 3ZFH270, N-[2-[bis(dimethylamino)methyleneamino]ethyl]-3-[4-[3,4,5-trihydroxy-6-(hydroxymethyl)tetrahydropyran-2-yl]oxyphenyl]benzamide] | 2.000 |  |
| COc1ccccc1-c1ccc(OC2OC(CO)C(O)C(O)C2O)cc1 (stereo not drawn) [Compound 3ZFH188, 2-(hydroxymethyl)-6-[4-(2-methoxyphenyl)phenoxy]tetrahydropyran-3,4,5-triol] | 2.000 |  |
| NC1C(O)C(CO)OC(OCc2ccccc2)C1O [Benzyl 3-amino-3-deoxy-a-D-mannoside, reference compound] |  | HAI Titer EC>90 (mM): >1000 µM |
| O=[N+]([O-])c1ccc(COC2OC(CO)C(O)C(O)C2O)cc1 (stereo not drawn) [Compound 1ZFH152, 2-(hydroxymethyl)-6-[(4-nitrophenyl)methoxy]tetrahydropyran-3,4,5-triol] | 60.000 |  |
| O=C(NCC1O[C@@H](CO)[C@@H](O)[C@H](O)[C@H]1O)c1ccc(Br)cc1 (stereo partly drawn) [Compound 4ZFH123, 4-bromo-N-[[(3R,4R,5S,6S)-3,4,5-trihydroxy-6-(hydroxymethyl)tetrahydropyran-2-yl]methyl]benzamide] | 16.000 | HAI Titer EC>50 (ZFH/JWJ codes): 16.000 µM; HAI Titer EC>90 (Table 22, ZFH/JWJ codes): 16.000 µM |
| OCC1OC(Oc2cc(C(F)(F)F)cc(C(F)(F)F)c2)C(O)C(O)C1O (stereo not drawn) [Compound 1ZFH274, 2-[3,5-bis(trifluoromethyl)phenoxy]-6-(hydroxymethyl)tetrahydropyran-3,4,5-triol] | 32.000 |  |
| O=C(Nc1ccncc1)c1cccc(-c2ccc(O[C@H]3O[C@H](CO)[C@@H](O)[C@H](O)[C@@H]3O)cc2)c1 [Compound 10e, N-(4-Pyridyl)-3-[4-[(2R,3S,4S,5S,6R)-3,4,5-trihydroxy-6-(hydroxymethyl)tetrahydropyran-2-yl]oxyphenyl]benzamide] |  | HAI Titer EC>90 (Table 18, Examples 30-36 numbering): 0.25 µM |
| O=C(NCCCCOC1OC(CO)C(O)C(O)C1O)c1ccc(-c2c3ccc(=O)cc-3oc3cc(O)ccc23)c(C(=O)O)c1 (stereo not drawn) [Compound 1ZFH134B, 2-(3-hydroxy-6-oxo-xanthen-9-yl)-5-[4-[3,4,5-trihydroxy-6-(hydroxymethyl)tetrahydropyran-2-yl]oxybutylcarbamoyl]benzoic acid] | 125.000 |  |
| COC(=O)c1cc2ccc(OC3OC(CO)C(O)C(O)C3O)cc2s1 (stereo not drawn) [Compound 2ZFH304, methyl 6-[3,4,5-trihydroxy-6-(hydroxymethyl)tetrahydropyran-2-yl]oxybenzothiophene-2-carboxylate] | 2.000 |  |
